The values that follow come from US9670261B2 (Sanofi, priority 2012, dated 2017).

For orientation: solubility means how much of the substance goes into solution per volume. The term Cmax denotes the highest concentration seen after dosing. The term half-life denotes the time in which the quantity being followed falls by half. Broadly, the EC50 is the concentration needed to bring the measured effect to its halfway point.

Series [1] is described as follows: Solubility testing in buffer (HPLC-UV). The conditions noted are these: buffer.
Series [2] in a line: Chemical stability in solution, 7 days at 25° C. (% remaining peptide). The conditions noted are these: % remaining peptide after 7 days at 25° C.
Protocol: After that time course, the sample was centrifuged for 20 min at 4000 rpm and the supernatant was analysed with HPLC-UV. For determination of the amount of the remaining peptide, the peak areas of the target compound at t0 and t7 were compared, resulting in “% remaining peptide”, following the equation % remaining peptide=[(peak area peptide t7)×100]/peak area peptide t0.
The chemical stability is expressed as “% remaining peptide”.
Series [3] can be described thus: Pharmacokinetic testing in mice, s.c. To be noted: mouse, plasma, sc, 1 mg/kg.
Protocol: Mice were dosed 1 mg/kg subcutaneously (s.c.). The mice were sacrified and blood samples were collected after 0.25, 0.5, 1, 2, 4, 8, 16 and 24 hours post application. Plasma samples were analyzed after protein precipitation via liquid chromatography mass spectrometry (LC/MS). PK parameters and half-life were calculated using WinonLin Version 5.2.1 (non-compartment model).
Another series has as its target T1, human GLP-1 receptor (Homo sapiens, UniProt P43220).
T1 construct: expressed in transfected cells
Put plainly: cAMP response (HTRF) of HEK-293 cells stably expressing human GLP-1 receptor. It counts as cell-based. To be noted: Table 7; cAMP formation; read-out: EC50 hGLP-1 R. The protocol: cAMP content of cells was determined using a kit from Cisbio Corp. (cat. no. 62AM4PEC) based on HTRF (Homogenous Time Resolved Fluorescence). For preparation, cells were split into T175 culture flasks and grown overnight to near confluency in medium (DMEM/10% FBS). Medium was then removed and cells washed with PBS lacking calcium and magnesium, followed by proteinase treatment with accutase (Sigma-Aldrich cat. no. A6964). Detached cells were washed and resuspended in assay buffer (1×HBSS; 20 mM HEPES, 0.1% BSA, 2 mM IBMX) and cellular density determined. They were then diluted to 400000 cells/ml and 25 μl-aliquots dispensed into the wells of 96-well plates. For measurement, 25 μl of test compound in assay buffer was added to the wells, followed by incubation for 30 minutes at room temperature.
In general terms: TR-FRET usually uses a lanthanide donor and a delayed reading to cut background.

Each structure is given as a SMILES string. ≈ marks a conversion by molar mass, not a printed value. *1 amine or outer side, *2 acyl side, *3 side chain or, on linkers, in order; H or OH if unused. Where a SMILES comes first, the peptide text is derived from it. Side-chain parts run from the residue outwards. [ ]: non-standard residue; d: D form. The star is where a group is joined. γGlu = O=C(O)[C@H](CCC(=O)[*:2])N[*:1]; Stearoyl = CCCCCCCCCCCCCCCCCC(=O)*; Palmitoyl = CCCCCCCCCCCCCCCC(=O)*; Aib = CC(C)(N)C(=O)O; βAla = NCCC(=O)O

T1 sequence (P43220 24-463): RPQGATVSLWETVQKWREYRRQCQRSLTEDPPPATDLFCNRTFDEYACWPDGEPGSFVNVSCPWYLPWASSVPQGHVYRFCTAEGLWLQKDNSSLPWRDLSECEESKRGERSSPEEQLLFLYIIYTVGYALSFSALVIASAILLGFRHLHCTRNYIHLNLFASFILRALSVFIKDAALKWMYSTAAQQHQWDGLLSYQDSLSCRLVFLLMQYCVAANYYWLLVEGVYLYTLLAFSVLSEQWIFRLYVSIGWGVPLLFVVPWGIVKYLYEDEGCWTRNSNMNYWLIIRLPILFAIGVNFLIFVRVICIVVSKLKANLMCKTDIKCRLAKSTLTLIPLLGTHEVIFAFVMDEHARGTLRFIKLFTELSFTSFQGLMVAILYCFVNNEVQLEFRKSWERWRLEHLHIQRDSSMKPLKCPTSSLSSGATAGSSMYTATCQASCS

Turning to `CCCCCCCCCCCCCCCCCC(=O)N[C@@H](CCC(=O)NCCCC[C@H](NC(=O)[C@H](CCC(N)=O)NC(=O)[C@@H](NC(=O)[C@H](CO)NC(=O)[C@H](CC(C)C)NC(=O)[C@H](CC(=O)O)NC(=O)[C@H](CO)NC(=O)[C@@H](NC(=O)[C@H](Cc1ccccc1)NC(=O)[C@@H](NC(=O)CNC(=O)[C@H](CCC(=O)O)NC(=O)C(C)(C)NC(=O)[C@@H](N)Cc1ccc(O)cc1)[C@@H](C)O)[C@@H](C)O)[C@@H](C)CC)C(=O)N[C@@H](CCC(=O)O)C(=O)N[C@@H](CCCCN)C(=O)N[C@@H](CCCNC(=N)N)C(=O)N[C@@H](C)C(=O)N[C@@H](C)C(=O)NC(C)(C)C(=O)N[C@@H](CCC(=O)O)C(=O)N[C@@H](Cc1ccccc1)C(=O)N[C@H](C(=O)N[C@@H](CCC(=O)O)C(=O)N[C@@H](Cc1c[nH]c2ccccc12)C(=O)N[C@@H](CC(C)C)C(=O)N[C@@H](CCCCN)C(=O)N[C@@H](CC(N)=O)C(=O)N[C@H](C(=O)NCC(=O)N1CCC[C@H]1C(=O)N[C@@H](CO)C(=O)N[C@@H](CO)C(=O)NCC(=O)N[C@@H](C)C(=O)N1CCC[C@H]1C(=O)N1CCC[C@H]1C(=O)N1CCC[C@H]1C(=O)N[C@@H](CO)C(N)=O)[C@@H](C)O)[C@@H](C)CC)C(=O)O` [SEQ ID NO: 15, Y-Aib-E-G-T-F-T-S-D-L-S-I-Q-K(γE-x70)-E-K-R-A-A-Aib-E-F-I-E-W-L-K-N-T-G-P-S-S-G-A-P-P-P-S-NH2] (H-Y[Aib]EGTFTSDLSIQK([γGlu-Stearoyl])EKRAA[Aib]EFIEWLKNTGPSSGAPPPS-NH2), the concentration in solution in series [1] (pH 4.5) (solubility at 2 h) was 997 µg/mL (≈ 216 µM). The solubility at 2 h in series [1] (pH 7.4) is greater than 1000 µg/mL. In series [2], the “Stability (pH 4.5)” value came to 91.0% and the “Stability (pH 7.4)” value was 90.0%. In series [3], this compound gave a Cmax of 5000 ng/mL and a half-life of 3.5 h.
For the compound `CCCCCCCCCCCCCCCCCC(=O)NCCC(=O)NCCC(=O)NCCCC[C@H](NC(=O)[C@H](CCC(N)=O)NC(=O)[C@@H](NC(=O)[C@H](CO)NC(=O)[C@H](CC(C)C)NC(=O)[C@H](CC(=O)O)NC(=O)[C@H](CO)NC(=O)[C@@H](NC(=O)[C@H](Cc1ccccc1)NC(=O)[C@@H](NC(=O)CNC(=O)[C@H](CCC(=O)O)NC(=O)C(C)(C)NC(=O)[C@@H](N)Cc1ccc(O)cc1)[C@@H](C)O)[C@@H](C)O)[C@@H](C)CC)C(=O)N[C@@H](CCC(=O)O)C(=O)N[C@@H](CCCCN)C(=O)N[C@@H](CCCNC(=N)N)C(=O)N[C@@H](C)C(=O)N[C@@H](C)C(=O)NC(C)(C)C(=O)N[C@@H](CCC(=O)O)C(=O)N[C@@H](Cc1ccccc1)C(=O)N[C@H](C(=O)N[C@@H](CCC(=O)O)C(=O)N[C@@H](Cc1c[nH]c2ccccc12)C(=O)N[C@@H](CC(C)C)C(=O)N[C@@H](CCCCN)C(=O)N[C@@H](CC(N)=O)C(=O)N[C@H](C(=O)NCC(=O)N1CCC[C@H]1C(=O)N[C@@H](CO)C(=O)N[C@@H](CO)C(=O)NCC(=O)N[C@@H](C)C(=O)N1CCC[C@H]1C(=O)N1CCC[C@H]1C(=O)N1CCC[C@H]1C(=O)N[C@@H](CO)C(N)=O)[C@@H](C)O)[C@@H](C)CC` [SEQ ID NO: 18, Y-Aib-E-G-T-F-T-S-D-L-S-I-Q-K(βA-βA-x70)-E-K-R-A-A-Aib-E-F-I-E-W-L-K-N-T-G-P-S-S-G-A-P-P-P-S-NH2] (H-Y[Aib]EGTFTSDLSIQK([βAla-βAla-Stearoyl])EKRAA[Aib]EFIEWLKNTGPSSGAPPPS-NH2), in series [3], the concentration peaked (Cmax) at 5750 ng/mL and the half-life is 2.1 h. The EC50 at human GLP-1 receptor is 7.6 pM.
In series [3], `CCCCCCCCCCCCCCCC(=O)N[C@@H](CCC(=O)NCCCC[C@H](NC(=O)[C@H](CCC(N)=O)NC(=O)[C@@H](NC(=O)[C@H](CO)NC(=O)[C@H](CC(C)C)NC(=O)[C@H](CC(=O)O)NC(=O)[C@H](CO)NC(=O)[C@@H](NC(=O)[C@H](Cc1ccccc1)NC(=O)[C@@H](NC(=O)CNC(=O)[C@H](CCC(=O)O)NC(=O)C(C)(C)NC(=O)[C@@H](N)Cc1ccc(O)cc1)[C@@H](C)O)[C@@H](C)O)[C@@H](C)CC)C(=O)N[C@@H](CCC(=O)O)C(=O)N[C@@H](CCCCN)C(=O)N[C@@H](CCCNC(=N)N)C(=O)N[C@@H](C)C(=O)N[C@@H](C)C(=O)N[C@@H](CCC(N)=O)C(=O)N[C@@H](CCC(=O)O)C(=O)N[C@@H](Cc1ccccc1)C(=O)N[C@H](C(=O)N[C@@H](CCC(=O)O)C(=O)N[C@@H](Cc1c[nH]c2ccccc12)C(=O)N[C@@H](CC(C)C)C(=O)N[C@@H](CCCCN)C(=O)N[C@@H](CC(N)=O)C(=O)N[C@H](C(=O)NCC(=O)N1CCC[C@H]1C(=O)N[C@@H](CO)C(=O)N[C@@H](CO)C(=O)NCC(=O)N[C@@H](C)C(=O)N1CCC[C@H]1C(=O)N1CCC[C@H]1C(=O)N1CCC[C@H]1C(=O)N[C@@H](CO)C(N)=O)[C@@H](C)O)[C@@H](C)CC)C(=O)O` [SEQ ID NO: 26, Y-Aib-E-G-T-F-T-S-D-L-S-I-Q-K(γE-x53)-EKRAAQEFIEWLKNTGPSSGAPPPS-NH2] (H-Y[Aib]EGTFTSDLSIQK([γGlu-Palmitoyl])EKRAAQEFIEWLKNTGPSSGAPPPS-NH2) gave a Cmax of 3120 ng/mL and a half-life of 3.7 h. The EC50 on human GLP-1 receptor amounted to 4.9 pM.
On to `CCCCCCCCCCCCCCCC(=O)N[C@@H](CCC(=O)NCCCC[C@H](NC(=O)[C@H](CCC(N)=O)NC(=O)[C@@H](NC(=O)[C@H](CO)NC(=O)[C@H](CC(C)C)NC(=O)[C@H](CC(=O)O)NC(=O)[C@H](CO)NC(=O)[C@@H](NC(=O)[C@H](Cc1ccccc1)NC(=O)[C@@H](NC(=O)CNC(=O)[C@H](CCC(=O)O)NC(=O)C(C)(C)NC(=O)[C@@H](N)Cc1ccc(O)cc1)[C@@H](C)O)[C@@H](C)O)[C@@H](C)CC)C(=O)N[C@@H](CC(=O)O)C(=O)N[C@@H](CCCCN)C(=O)N[C@@H](CCCNC(=N)N)C(=O)N[C@@H](C)C(=O)N[C@@H](C)C(=O)N[C@@H](CCC(N)=O)C(=O)N[C@@H](CC(=O)O)C(=O)N[C@@H](Cc1ccccc1)C(=O)N[C@H](C(=O)N[C@@H](CCC(=O)O)C(=O)N[C@@H](Cc1c[nH]c2ccccc12)C(=O)N[C@@H](CC(C)C)C(=O)N[C@@H](CCCCN)C(=O)N[C@@H](C)C(=O)NCC(=O)NCC(=O)N1CCC[C@H]1C(=O)N[C@@H](CO)C(=O)N[C@@H](CO)C(=O)NCC(=O)N[C@@H](C)C(=O)N1CCC[C@H]1C(=O)N1CCC[C@H]1C(=O)N1CCC[C@H]1C(=O)N[C@@H](CO)C(N)=O)[C@@H](C)CC)C(=O)O` [SEQ ID NO: 31, Y-Aib-E-G-T-F-T-S-D-L-S-I-Q-K(γE-x53)-DKRAAQDFIEWLKAGGPSSGAPPPS-NH2], for which the solubility at 2 h in series [1] (pH 4.5) was greater than 1000 µg/mL. The same compound came in with a solubility at 2 h in series [1] (pH 7.4) greater than 1000 µg/mL. In series [2], the “Stability (pH 4.5)” value turned out to be 94.0% and the “Stability (pH 7.4)” value was 96.0%. The EC50 on human GLP-1 receptor stood at 6 pM.
Regarding `CCCCCCCCCCCCCCCC(=O)N[C@@H](CCC(=O)NCCCC[C@H](NC(=O)[C@H](CCC(N)=O)NC(=O)[C@@H](NC(=O)[C@H](CO)NC(=O)[C@H](CC(C)C)NC(=O)[C@H](CC(=O)O)NC(=O)[C@H](CO)NC(=O)[C@@H](NC(=O)[C@H](Cc1ccccc1)NC(=O)[C@@H](NC(=O)CNC(=O)[C@H](CCC(=O)O)NC(=O)C(C)(C)NC(=O)[C@@H](N)Cc1ccc(O)cc1)[C@@H](C)O)[C@@H](C)O)[C@@H](C)CC)C(=O)N[C@@H](CCC(=O)O)C(=O)N[C@@H](CO)C(=O)N[C@@H](CCCNC(=N)N)C(=O)N[C@@H](C)C(=O)N[C@@H](C)C(=O)NC(C)(C)C(=O)N[C@@H](CCC(=O)O)C(=O)N[C@@H](Cc1ccccc1)C(=O)N[C@H](C(=O)N[C@@H](CCC(=O)O)C(=O)N[C@@H](Cc1c[nH]c2ccccc12)C(=O)N[C@@H](CC(C)C)C(=O)N[C@@H](CCCCN)C(=O)N[C@@H](C)C(=O)NCC(=O)NCC(=O)N1CCC[C@H]1C(=O)N[C@@H](CO)C(=O)N[C@@H](CO)C(=O)NCC(=O)N[C@@H](C)C(=O)N1CCC[C@H]1C(=O)N1CCC[C@H]1C(=O)N1CCC[C@H]1C(=O)N[C@@H](CO)C(N)=O)[C@@H](C)CC)C(=O)O` [SEQ ID NO: 35, Y-Aib-E-G-T-F-T-S-D-L-S-I-Q-K(γE-x53)-E-S-R-A-A-Aib-E-F-I-E-W-L-K-A-G-G-P-S-S-G-A-P-P-P-S-NH2] (H-Y[Aib]EGTFTSDLSIQK([γGlu-Palmitoyl])ESRAA[Aib]EFIEWLKAGGPSSGAPPPS-NH2), the concentration in solution in series [1] (pH 4.5) (solubility at 2 h) was 424 µg/mL (≈ 95.4 µM). For the same compound, the solubility at 2 h in series [1] (pH 7.4) is greater than 1000 µg/mL. In series [2], the “Stability (pH 4.5)” value turned out to be 100.0% and the “Stability (pH 7.4)” value was 98.0%. Besides, on human GLP-1 receptor, the EC50 came to 6.9 pM.
